Laboratory results reported in US20220105051A1, “COMPOUNDS FOR INCREASING MHC-I EXPRESSION AND MODULATING HISTONE DEACETYLASE ACTIVITY” (Cava Healthcare Inc., priority 2019, published 2022).
“Also recorded” adds a separate entry of the source.

Tests used:
[1] = Maximum tolerated dose; format: in vivo; settings: for MTD at 14 days: female, C57BL/6, mouse, in vivo, ip, limited by solubility in 1% DMSO, read-out: highest maximum tolerated dose; for signs of toxicity (clinical signs, necropsy): i.p. 1.0, 3.5 and 5.2 mg/kg, 14 days, C57BL/6 mice
Experimental: British Columbia Cancer Agency (BCCA) completed the maximum tolerated dose study for compound P02-113, whereas P03-97-1 was assessed in-house following the same protocol. […]. The compounds were injected intraperitoneally (i.p.) at concentrations of 1.0 mg/kg (n=3), 3.5 mg/kg (n=3), or 5.2 mg/kg (n=3). These doses were based on the maximum solubility of the compounds that was determined using the known solubility of curcuphenol. Mice were assessed for clinical signs of toxicity for 14 days following injection. After 14 days the mice were euthanized and examined by necropsy, P02-113 was performed at BCCA, and P03-97-1 was performed by Animal Care Services located at the Center for Comparative Medicine on UBC Point Grey campus, Vancouver BC.
In vivo efficacy studies. Maximum tolerated dose (MTD). The maximum tolerated dose for the selected compounds, P02-113 and P03-97-1, were assessed in vivo. C57BI/6 mice were injected intraperitoneally (i.p.) with the test compounds at 3 different concentrations: 1.0 mg/kg (n=3), 3.5 mg/kg (n=3) and 5.2 mg/kg (n=3). Mice were then assessed for 14 days for clinical signs of toxicity and at the end point a necropsy was performed. […]

[2] = Pharmacokinetics in mouse plasma; format: in vivo; settings: 5.2 mg/kg i.p.; for half-life in mouse plasma: Example 3; for half-life / concentration at 5 min: female; for half-life: C57BL/6, ip, mouse plasma, Example 1; for concentration at 5 min: C57BL/6, mouse, plasma, intraperitoneal, read-out: concentration in mouse plasma after 5 minutes
Text: To assess the pharmacokinetics (PK) of the curcuphenol analogues, a mass spectrometry assay was developed to measure the compounds in plasma. This assay was created by The Metabolomics Innovation Center (TMIC) at UVic-Genome BC Proteomics Centre located in Victoria, British Columbia. Eight samples were sent to TMIC for PK design for identification of P02-113 and P03-97-1 in mouse plasma. To collect plasma, mice were anesthetized using isoflurane and blood was collected by cardiac puncture. Plasma was isolated from blood in a potassium-EDTA coated Tube with K2E (BD Microtainer) and centrifugation at 10,000×g for 1 minute. Plasma was transferred to a cryovial and stored at −20° C. before being shipped on dry ice. TMIC used a chemical derivatization—UPLC-MMR/MS method to create a quantitative analysis tool for the compounds using dansyl chloride (DAN.CI) as the derivatizing reagent. 13C-labeled DAN.CI was used to produce stable isotope-labeled internal standards (ISs). All tests were performed using an UPLC-4000 QTRAP system with ESI and (+) ion detection using C18 column and acetonitrile-water-formic acid as the mobile phase.
For the PK analysis of P02-113 and P03-97-1, mice were injected i.p. and anesthetized before blood was collected by cardiac puncture at five time points (5 min, 10 min, 30 min, 1 hour and 6 hour). […] Three female C57BL/6 mice, between the ages 6-8 weeks, were used for each compound for each time point, giving a total […]. All mice were injected at the highest maximum tolerated dose (5.2 mg/kg) and plasma was prepared and stored as previously described above.
Pharmacokinetic study. […]. Three mice were used for each time point, with a total of […]. Time points were strategically chosen based on the similar structure of the compounds to TSA, an HDACi, which is known to augment TAP and MHC-I expression in metastatic tumours and to be metabolized at a high rate. The chosen time points were 5 minutes, 10 minutes, 1 hour and 6 hours.

[3] = target: T1, HDAC1 (Homo sapiens, UniProt Q13547); assay: Individualized HDAC assay, HDAC1; format: biochemical; settings: purified enzyme, 5 to 0.02 μM
T1 construct: purchased BPS Biosciences
Experimental: (§1) The activity of the curcuphenol analogues was assessed with purified HDAC enzymes from all classes I, II, and IV, as well as a select member of HDAC class III (SIRT1). HDACs 1-9 and SIRT1 were evaluated using HDAC Fluorogenic Assay Kits (BPS Biosciences). All assays were completed in black-sided clear-bottom 96 well plates (PerkinElmer), and all treatments were plated in triplicates. Treatment started at 5 μM and was two-fold diluted to a concentration 0.02 μM. The assays were measured using the Synergy HI hybrid reader (BioTek) and Gen5 software (BioTek), excitation was set to 360 nm and detection was measured at 450 nm with a gain of 100. […] Luminescence was read 30 minutes after HDAC-Glo™I/II reagent was added using the Synergy HI hybrid reader (BioTek) and Gen5 software (Bio-Tek). […] The relative mean of activity of the HDAC being measured was determined and all wells that received treatment were divided this average, to give a percentage of activity.
(§2) To evaluate the effect of the compounds on specific HDACs, their activity was assessed with purified HDAC enzymes from all classes I, II, and IV, as well as a select member of HDAC class III (SIRT1). HDACs 1-9 and SIRT1 were evaluated using HDAC Fluorogenic Assay Kits (BPS Biosciences) following the manufacturer's recommendations. […] The assays were measured using the Synergy HI hybrid reader (BioTek) and Gen5 software (Bio-Tek). […]

[4] = target: T2, HDAC9 (Homo sapiens, UniProt Q9UKV0); assay: Individualized HDAC assay, HDAC9; format: biochemical; settings: purified enzyme, 5 to 0.02 μM
T2 construct: purchased BPS Biosciences
Experimental: (§3) The activity of the curcuphenol analogues was assessed with purified HDAC enzymes from all classes I, II, and IV, as well as a select member of HDAC class III (SIRT1). HDACs 1-9 and SIRT1 were evaluated using HDAC Fluorogenic Assay Kits (BPS Biosciences). All assays were completed in black-sided clear-bottom 96 well plates (PerkinElmer), and all treatments were plated in triplicates. Treatment started at 5 μM and was two-fold diluted to a concentration 0.02 μM. The assays were measured using the Synergy HI hybrid reader (BioTek) and Gen5 software (BioTek), excitation was set to 360 nm and detection was measured at 450 nm with a gain of 100. Alternatively HDAC 10 and 11 (BPS Biosciences) were optimized for HDAC concentration using the HDAC-Glo™ I/II Assay and Screening System (Promega). Following optimization each HDAC was run following the Promega protocol in black-sided clear-bottomed 96 well plates in triplicates with same treatments listed above (PerkinElmer). Luminescence was read 30 minutes after HDAC-Glo™I/II reagent was added using the Synergy HI hybrid reader (BioTek) and Gen5 software (Bio-Tek). […] To calculate percent activity, the average of blank wells was subtracted from all treatment groups. The relative mean of activity of the HDAC being measured was determined and all wells that received treatment were divided this average, to give a percentage of activity.
(§4) To evaluate the effect of the compounds on specific HDACs, their activity was assessed with purified HDAC enzymes from all classes I, II, and IV, as well as a select member of HDAC class III (SIRT1). HDACs 1-9 and SIRT1 were evaluated using HDAC Fluorogenic Assay Kits (BPS Biosciences) following the manufacturer's recommendations. Compound treatment started at 5 μM and was two-fold diluted to a concentration 0.02 μM. […] The assays were measured using the Synergy HI hybrid reader (BioTek) and Gen5 software (Bio-Tek). […] To calculate the fold change in HDAC activity, the values from each treated well were divided by the relative mean of activity of the specific HDAC being measured.

[5] = target: T3, HDAC11 (Homo sapiens, UniProt Q96DB2); assay: Individualized HDAC assay, HDAC11 (HDAC-Glo); format: biochemical; settings: purified enzyme, 5 to 0.02 μM
T3 construct: purchased BPS Biosciences
T3 sequence (Q96DB2 1-347): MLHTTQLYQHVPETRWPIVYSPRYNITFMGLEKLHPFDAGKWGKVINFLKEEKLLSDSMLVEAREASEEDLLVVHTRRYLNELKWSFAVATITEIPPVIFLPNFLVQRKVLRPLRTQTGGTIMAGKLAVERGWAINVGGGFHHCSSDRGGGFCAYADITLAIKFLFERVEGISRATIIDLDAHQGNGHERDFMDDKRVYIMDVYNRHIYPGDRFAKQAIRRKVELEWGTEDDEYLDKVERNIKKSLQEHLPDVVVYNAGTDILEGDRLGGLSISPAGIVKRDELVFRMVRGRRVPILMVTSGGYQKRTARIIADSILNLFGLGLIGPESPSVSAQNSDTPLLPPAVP
Experimental: as §3, §4

[6] = target: T4, HDAC3 (Homo sapiens, UniProt O15379); assay: Individualized HDAC assay, HDAC3; format: biochemical; settings: purified enzyme, 5 to 0.02 μM
T4 construct: purchased BPS Biosciences
Experimental: as §1, §2

T4 sequence (O15379 whole entry): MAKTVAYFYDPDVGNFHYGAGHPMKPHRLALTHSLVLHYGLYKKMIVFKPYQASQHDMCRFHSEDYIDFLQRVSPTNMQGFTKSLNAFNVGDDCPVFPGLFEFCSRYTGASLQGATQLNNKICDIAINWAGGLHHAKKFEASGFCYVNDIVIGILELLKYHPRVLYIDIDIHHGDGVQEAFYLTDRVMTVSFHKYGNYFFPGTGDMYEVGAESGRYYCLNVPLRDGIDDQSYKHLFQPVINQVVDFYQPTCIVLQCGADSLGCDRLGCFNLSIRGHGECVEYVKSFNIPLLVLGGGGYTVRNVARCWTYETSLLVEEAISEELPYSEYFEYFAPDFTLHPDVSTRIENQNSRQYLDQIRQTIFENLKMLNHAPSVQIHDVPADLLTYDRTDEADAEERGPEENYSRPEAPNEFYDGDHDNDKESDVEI
T4 sequence (Q9Y618 395-489 partner limits assumed): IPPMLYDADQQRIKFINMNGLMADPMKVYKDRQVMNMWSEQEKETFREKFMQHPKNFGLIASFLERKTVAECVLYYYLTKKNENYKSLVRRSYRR
T2 sequence (Q9UKV0 whole entry): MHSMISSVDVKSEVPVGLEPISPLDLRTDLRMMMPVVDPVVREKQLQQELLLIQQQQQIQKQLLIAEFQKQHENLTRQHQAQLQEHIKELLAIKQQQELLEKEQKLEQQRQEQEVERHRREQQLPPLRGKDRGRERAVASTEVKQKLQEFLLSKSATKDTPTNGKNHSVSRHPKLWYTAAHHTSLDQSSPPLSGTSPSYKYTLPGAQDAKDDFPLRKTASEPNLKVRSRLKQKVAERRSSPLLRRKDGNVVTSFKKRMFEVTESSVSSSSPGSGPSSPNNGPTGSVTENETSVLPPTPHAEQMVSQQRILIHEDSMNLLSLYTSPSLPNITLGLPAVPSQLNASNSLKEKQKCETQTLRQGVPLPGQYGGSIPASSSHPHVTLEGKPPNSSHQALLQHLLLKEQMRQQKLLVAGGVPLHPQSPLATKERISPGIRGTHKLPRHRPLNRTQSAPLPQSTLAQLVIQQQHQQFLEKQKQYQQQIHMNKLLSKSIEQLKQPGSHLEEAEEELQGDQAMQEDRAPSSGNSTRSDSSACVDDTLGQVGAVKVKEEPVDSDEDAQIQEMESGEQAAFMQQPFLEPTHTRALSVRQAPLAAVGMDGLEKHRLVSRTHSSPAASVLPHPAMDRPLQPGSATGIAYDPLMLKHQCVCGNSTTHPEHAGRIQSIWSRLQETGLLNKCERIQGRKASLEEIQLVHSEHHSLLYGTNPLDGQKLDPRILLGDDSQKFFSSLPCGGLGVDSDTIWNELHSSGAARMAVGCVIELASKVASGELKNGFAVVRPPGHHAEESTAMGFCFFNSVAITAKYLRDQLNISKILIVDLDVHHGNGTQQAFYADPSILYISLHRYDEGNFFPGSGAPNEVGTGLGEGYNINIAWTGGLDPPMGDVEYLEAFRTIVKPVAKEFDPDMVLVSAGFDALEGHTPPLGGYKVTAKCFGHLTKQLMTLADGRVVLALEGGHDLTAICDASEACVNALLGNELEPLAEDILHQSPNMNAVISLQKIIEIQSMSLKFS
T1 sequence (Q13547 whole entry): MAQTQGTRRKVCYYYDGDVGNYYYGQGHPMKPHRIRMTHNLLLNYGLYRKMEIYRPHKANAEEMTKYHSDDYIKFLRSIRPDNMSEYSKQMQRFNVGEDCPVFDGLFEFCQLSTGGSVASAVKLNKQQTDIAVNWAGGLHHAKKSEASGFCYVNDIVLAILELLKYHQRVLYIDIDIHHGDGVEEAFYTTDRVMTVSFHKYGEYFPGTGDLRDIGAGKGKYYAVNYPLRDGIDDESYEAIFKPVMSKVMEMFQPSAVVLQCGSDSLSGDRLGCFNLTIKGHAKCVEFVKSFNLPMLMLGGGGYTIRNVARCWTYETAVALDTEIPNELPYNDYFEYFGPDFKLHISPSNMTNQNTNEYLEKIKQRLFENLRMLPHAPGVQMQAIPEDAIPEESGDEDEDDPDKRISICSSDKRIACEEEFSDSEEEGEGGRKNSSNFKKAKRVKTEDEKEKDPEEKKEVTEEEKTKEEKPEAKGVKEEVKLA

| Structure (SMILES) | MTD at 14 days [1] | signs of toxicity (clinical signs, necropsy) [1] | level in mouse plasma at the 6 hour time point [2] | time at which plasma concentration was half of the 5 minute concentration [2] | half-life in mouse plasma [2] | half-life [2] | concentration at 5 min [2] | HDAC1 activity [3] | HDAC9 activity [4] | HDAC11 activity [5] | HDAC3 activity [6] | HDAC9 activity ([4]; listed as PO-3-97-1) | HDAC11 activity ([5]; listed as PO-3-97-1) |
| --- | --- | --- | --- | --- | --- | --- | --- | --- | --- | --- | --- | --- | --- |
| CC(C)=CCCCc1ccc(C)cc1O [P02-113] | 5.2 mg/kg | no signs of toxicity or abnormalities; also recorded: no adverse drug effects | undetectable levels | 10 min | roughly one | < 5 min | 0.4 ng/mL | no significant change in HDAC activity | no change in activity; also recorded: did not affect the activity; also recorded: unaffected | unaffected; also recorded: no effect was observed; also recorded: no change in activity | no significant change in HDAC activity |  |  |
| COc1ccc(C(C)CCC=C(C)C)c(O)c1 (stereo not drawn) [P03-97-1] | 5.2 mg/kg | no signs of toxicity or abnormalities; also recorded: no adverse drug effects | undetectable levels | around 20 minutes | roughly one | 15 min | 30 ng/mL | no significant change in HDAC activity | no change in activity; also recorded: unaffected | unaffected; also recorded: no change in activity | no significant change in HDAC activity | did not affect the activity | no effect was observed |
